These results are taken from US9381193B2, “Contraceptive methods and compositions” (WASHINGTON UNIVERSITY, priority 2011, dated 2016).

Where only a bound is given, the exact number is not on record here.

Data set [1] relates to ESC-T cells. The experiment in a line: In vitro decidualization of immortalized human ESC-T cells (decidualization marker mRNA, morphology). Format: cell-based. An excerpt:
Decidualization in human cells was monitored by measuring the mRNA expression of two decidualization markers, PRL and IGFBP1.
This NADP+ analog inhibits two enzymes in the PPP, G6PD and 6GPDH, which utilize NADP+ and convert it into NADPH.
Two major results of the PPP are the production of ribose 5-phosphate and regeneration of NADPH. Production of ribose 5-phosphate is a central component in the de novo synthesis of ribonucleosides (RNs) and deoxyribonucleosides (DRNs). […] To address this question, ESC-T cultures were used and the differentiation media was supplemented with RNs and DRNs during treatment with PPP inhibitors.
(§1) Endometrial tissue was obtained from human uteri after hysterectomy conducted for benign disease or from endometrial biopsies. Informed consent was obtained from each patient before surgery and protocols were approved by the Human Research Protection Office of Washington University (HRPO#07-0949). Tissues were placed in HBSS and transported to the laboratory. hESCs were isolated and cultured as previously described. In vitro decidualization was performed as previously described with several changes. Cells were seeded in 6-well plates at 2×10^5 cells/well in DMEM:F12 without phenol red, supplemented with 2% heat-inactivated charcoal dextran-stripped calf serum (HyClone) and 50 μg/ml penicillin/streptomycin (Cambrex Bio Science). Cells were treated with 1 μM medroxyprogesterone-17-acetate (MPA) (Sigma) and 0.5 mM N^6, 2′-O-Dibutyryladenosine 3′,5′-cyclic monophosphate sodium salt (db-cAMP) (Sigma). Control samples received 0.1% ethanol vehicle control.
Human immortalized ESC (ESC telomerase immortalized, ESC-T), were decidualized in vitro in the presence of 0, 2.5 or 5 mM GlcN for 9 days.

Data set [2] concerns murine ESCs. Nature of the data set: In vitro decidualization of primary murine ESCs (Prp mRNA). It counts as cell-based, mouse. Particulars: 3 days in vitro culture. An excerpt: (§2) In order to confirm that this is not a side effect of ESC immortalization with telomerase overexpression in this human cell line, the effect of DHEA on decidualization of primary ESC cultures from mouse and human uteri was also investigated. Murine ESCs were isolated from the gravid uterus at 4 days post coitus and cultured in vitro for 3 days to induce decidualization as described in the Methods. […] The human primary ESCs were isolated from uteri following hysterectomy for benign disease as outlined in the Methods and cultured in decidualization media for 9 days.
For in vitro decidualization of ESCs, female mice were sacrificed at 4dpc. Pregnancy was confirmed by flushing dissected uterine horns and ostia with HBSS and observing for presence of blastocysts. Uteri confirmed for pregnancy were cut into 1 mm^3 pieces and incubated in Dulbecco's modified Eagle's Medium:F12 medium (DMEM:F12) without phenol red supplemented with 2 g/liter Collagenase Type I (Gibco) for 60-90 min at 37° C. Tissues were vortexed every 15 min during incubation. Following incubation, the solution was passed through a 40 μm sieve (BD Falcon) and centrifuged at 1100 rpm for 5 min. […]

Data set [3] deals with human primary ESCs. Nature of the data set: In vitro decidualization of human primary ESCs (decidualization marker mRNA). Format: cell-based.
Source text: as §2
Control samples received 0.1% ethanol vehicle control.

The subject of data set [4] is hESC-Ts. Nature of the data set: Radiolabeled glucose flux (1-14C, 6-14C, 5-3H-glucose) in hESC-Ts. Format: cell-based, human. The method, then: For these experiments, hESCs immortalized via overexpression of telomerase (hESC-Ts) were used. […] The response of these cells to PPP inhibitors was also tested in order to confirm their similar dependence on the pathway for differentiation. In order to determine glucose flux through the various metabolic pathways in ESCs the metabolic fates of 1-^14C—, 6-^14C—, and 5-^3H-glucose was followed. hESC-Ts were incubated for 3 h with one of the radiolabled glucoses and production of ^14CO2 or ^3H2O was compared between the four treatment groups, control, decidualized, and decidualized with 2 μM or 5 μM 6-AN (FIG. 6). […] This was an indication that the flux through the TCA cycle or PPP was decreased in the inhibitor-treated ESCs. […] Therefore, inhibiting G6PD with 6-AN has no effect on TCA flux, but directly lowers the metabolism of glucose through PPP. The ratio of 1-C:6-C, which summarizes the relative preference of the PPP, can then be seen as decreasing in the presence of the inhibitor 6-AN.
This indicates an increase in the amount of glucose entering glycolysis without continuing into the TCA cycle, possibly being converted into lactate.

Data set [5] has as its system ESC-T cells. Nature of the data set: EdU incorporation proliferation assay. Format: cell-based, human. An excerpt:
Other groups have shown that DHEA has anti-proliferative effects in a number of cell-lines and tissues. Thus, it was hypothesized that perhaps the PPP inhibitors prevent the proliferation of ESC-Ts and that this is an additional effect, independent of their role in decidualization inhibition. In a human uterus the stromal cells go through a cyclical oscillation between proliferation and differentiation, determined by the hormonal milieu. ESC-Ts in vitro remain in the proliferative state until they are exposed to differentiation media, which causes the cells to halt cell division and enter differentiation. Proliferation of ESC-T cells were monitored by EdU incorporation in vitro, which indicates entry into the S-phase of the cell cycle, in the absence of the differentiation hormones.
Following 60 hr of the treatment indicated in the experiment, EdU was added to the culture medium at a concentration of […]. Cells were harvested and stained using the Click-iT EdU Flow Cytometry Kit (Invitrogen). Quantitative data were collected using a BD FACSCalibur flow cytometer (Becton Dickinson, San Jose, Calif.) and analyzed with FlowJo software (TreeSTar, Inc., Ashland, Oreg.). For confocal microscopy, the cells were stained on coverslips using the same protocol. Nuclei were counterstained with TOPRO-iodide (Molecular probes) at a 1:500 dilution. Cells were mounted on slides using Vectashield (Vector Labs) and visualized using a Nikon C1 microscope.

The subject of data set [6] is ICR female mice. Nature of the data set: Intrauterine DHEA or 6-AN pellet and pregnancy outcome. Format: in vivo, mouse. How it is done: ICR female mice had either placebo (n=26), DHEA (1.5 mg/60 days)(n=20), or 6-AN pellets (150, 15, 1.5 mcg/60 days)(n=24) placed into the uterine horn after index delivery. Females were then mated and litter size was measured over the following 120 days post pellet. Mice were housed according to the Institutional Animal Care and use Committee and NIH guidelines. Day to first litter, number of litters, number of pups, average pups/litter were recorded. Serum DHEA levels were quantified (Alpco, Salem, N.H.). All pellets (placebo, DHEA, 6-AN) were custom-formulated (Innovative Research, Inc).

Data set [7] relates to ESC-T. Nature of the data set: Viability of ESC-T with GlcN (MTT assay and flow cytometry). Particulars: 0, 2.5 or 5 mM GlcN for 9 days. It counts as cell-based, human. How it is done:
(§3) Human immortalized ESC (ESC telomerase immortalized, ESC-T), were decidualized in vitro in the presence of 0, 2.5 or 5 mM GlcN for 9 days. […] Thus, it was concluded that perturbation of the PPP activity by GlcN might lead to the failure of ESC decidualization and thus possibly be one of the first non-hormonal inhibitors of decidualization. Finally, in vivo evidence is provided that female mice with a time-release GlcN pellet (15-1500 μg) implanted in one uterine horn, delivered fewer live pups per litter over a 60-day period than those with control pellet implantation (8.25 vs 4.23 pups/litter; FIG. 25).
(Tetrazolium dyes change colour on reduction, which living cells bring about.)

For data set [8], the target named is T1, G6PDH (Homo sapiens, UniProt P11413).
T1 construct: endogenous in cells; host or cells: human telomerase-immortalized endometrial stromal cells (ESC-T)
T1 sequence (P11413 whole entry): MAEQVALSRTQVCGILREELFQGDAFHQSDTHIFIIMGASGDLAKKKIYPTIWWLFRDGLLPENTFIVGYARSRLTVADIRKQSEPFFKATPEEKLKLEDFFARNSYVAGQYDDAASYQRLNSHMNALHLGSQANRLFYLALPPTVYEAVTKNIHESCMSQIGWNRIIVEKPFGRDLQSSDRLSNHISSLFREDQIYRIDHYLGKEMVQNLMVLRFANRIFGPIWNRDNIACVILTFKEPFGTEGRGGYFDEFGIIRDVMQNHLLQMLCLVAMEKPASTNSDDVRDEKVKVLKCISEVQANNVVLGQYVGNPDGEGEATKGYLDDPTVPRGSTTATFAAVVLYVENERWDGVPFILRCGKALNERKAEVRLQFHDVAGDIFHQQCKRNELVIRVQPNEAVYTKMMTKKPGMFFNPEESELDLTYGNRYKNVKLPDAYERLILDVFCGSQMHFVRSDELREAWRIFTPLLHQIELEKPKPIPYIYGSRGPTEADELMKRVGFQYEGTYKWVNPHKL
The experiment in a line: G6PDH activity in decidualized ESC-T cells exposed to GlcN. Format: cell-based. The method, then:
as §3

Data set [9] relates to ICR female mice. Nature of the data set: Intrauterine time-release GlcN pellet and pups per litter. It counts as in vivo, mouse. Particulars: time-release GlcN pellet (15-1500 μg) in one uterine horn; 60-day period. How it is done: FIG. 25A-B graphically depicts decreased birth rate by glucosamine in ICR mice. 6 weeks old ICR female mice were implanted with a control or GlcN (15-1500 μg) pellet on one uterine horn and (A) with or (B) without the hysterectomy on the other uterine horn. Pups per litter in pellet implanted female mice crossed with males were recorded. **, P<0.01.
as §3

Data set [10] relates to human ESCs. How it is done: as §1
Data set [11] has as its system human immortalized ESCs. Particulars: 1 μM and 1.5 μM IA; 5-3H-glucose for four hours.
Description: In order to confirm inhibition of glycolysis, human immortalized ESCs were incubated in the presence of 5-^3H-glucose for four hours and the amount of ^3H2O production (H2O produced from the 5th hydrogen of glucose is a product of glycolysis) in ESCs exposed to different concentrations of IA was measured (FIG. 2b).
Where [12] appears, read: decidualized cells with 2 μM or 5 μM 6-AN, 3 h.

With `NC(=O)c1ccc(N)nc1` [6-AN, 6-aminonicotinamide], in data set [1] (10 μM 6AN, day 3 to day 9 in culture), the “Expression of PRL and IGFBP” value is on record as “inhibited”. Besides, the “Prp mRNA expression” value in data set [2] was “decreased Prp expression”. Moreover, in data set [3] (9 days in decidualization media), the “Expression of PRL and IGFBP1” value is given as “decreased”. Also, in data set [4] (setting [12]), the “Metabolism of glucose labeled at the C-1 position (14CO2)” value was “lower in the decidualized cells exposed to 6-AN in a concentration dependent manner” and the “Metabolism of the 6-C labeled glucose (14CO2)” value was “not affected”. Besides, the “Glycolytic flux of 5-3H labeled glucose” value in data set [4] (decidualized cells with 5 μM 6-AN) is given as “returned almost to the same levels as the control”. Further, the “Ratio of 1-C:6-C (relative preference of the PPP)” value in data set [4] (presence of 6-AN) is “decreasing”. In [5] (100 μM DHEA, 50 μM 6AN), the “EdU-positive nuclei vs DMSO control” value is reported as “drastic decrease”. In addition, in [5] (4 independent experiments), the “Proliferation by EdU geometric mean fluorescence intensity (flow cytometry)” value is listed as “decreases proliferation of ESC-Ts in a concentration dependent manner”. Moreover, the “Reduction in average pup/litter size” value in [6] (6-AN pellet, not significant from control (p=0.4)) was found to be 37.7%. Besides, the “Average time to first litter” value in data set [6] (intrauterine pellet: DHEA 1.5 mg/60 days, 6-AN 150, 15, 1.5 mcg/60 days, controls 27 days) worked out at 34 days.

Turning to `N[C@H]1C(O)O[C@H](CO)[C@@H](O)[C@@H]1O` (some centres unmarked) [GlcN, glucosamine], the “mRNA expression of prolactin, somatostatin, interleukin-15, left-right determination factor 2, tissue inhibitor of metalloproteinase 3” value is given as “significantly lower expression levels” in data set [1] (GlcN 2.5 or 5 mM, quantitative RT-PCR) and “significantly lower expression levels” in [3] (GlcN, day 9 of culture). For the same compound, the “Expression levels of PRL and SMST over time” value in [1] (GlcN, day 3 through day 9) is on record as “decreased the expression levels”. In addition, the Viability / proliferation entry in [7] is reported as “viability similar to control cells”. For the same compound, the “G6PDH activity vs control cells” value in data set [8] is given as “significantly lower”. The “Live pups per litter” value in data set [9] came out at 4.23 pups/litter.

Consider `O=C(O)CI` [IA, Iodoacetate], for which the “Decidualization assessed by Prl marker expression” value in [10] (IA concentrations below the toxic threshold) is reported as “not affected”. The “Concentration inducing cell death” value in data set [10] (within 24 hr of administration) was at least 2000 nM. Besides, the “Reduction of flux of glucose through glycolysis” value in data set [11] was 40%.
